Values quoted from earlier work as cited in US20020042375A1, “Method of treating cancer” (priority 2000, published 2002).

What was measured:
[1] = tested on: PC-3 prostate cancer cells; settings: PC-3 cells
[2] = tested on: LNCaP prostate cancer cells
prostate cancer cell = settings: in vitro
LNCaP cells = settings: exogenous administration

Compound: CS(=O)(=O)Nc1ccc([N+](=O)[O-])cc1OC1CCCCC1 [NS398]
- apoptosis [1]: induce apoptosis
- apoptosis [2]: induce apoptosis
- prostate cancer cell apoptosis (prostate cancer cell): induce prostate cancer cell apoptosis

Compound: CC(=O)Oc1ccccc1C(=O)O [aspirin]
- prostate cancer cell apoptosis (prostate cancer cell): induce prostate cancer cell apoptosis

Compound: CCCCC(C)(C)[C@H](O)/C=C/[C@H]1[C@H](O)CC(=O)[C@@H]1C/C=C\CCCC(=O)O [dimethylprostaglandin E2]
- proliferation in vitro (LNCaP cells): increased proliferation
- proliferation in vitro (PC-3 cells; exogenous administration, PC-3 cells): increased proliferation

Compound: CC(C(=O)O)c1ccc(-c2ccccc2)c(F)c1 (centres unmarked) [flurbiprofen]
- prostate cancer cell apoptosis (prostate cancer cell): induce prostate cancer cell apoptosis
- PC-3 growth (PC-3 cells; in the dimethylprostaglandin E2 model): inhibited PC-3 growth

Compound: COc1ccc2c(c1)c(CC(=O)O)c(C)n2C(=O)c1ccc(Cl)cc1 [indomethacin]
- prostate cancer cell apoptosis (prostate cancer cell): induce prostate cancer cell apoptosis

Compound: CC(C(=O)O)c1cccc(C(=O)c2ccccc2)c1 (centres unmarked) [ketoprofen]
- prostate cancer cell apoptosis (prostate cancer cell): induce prostate cancer cell apoptosis

Compound: CN1C(C(=O)Nc2ccccn2)=C(O)c2ccccc2S1(=O)=O [piroxicam]
- prostate cancer cell apoptosis (prostate cancer cell): induce prostate cancer cell apoptosis
